Test results: patent US12398125B2, “Nitrogen-containing saturated heterocyclyl derivative” (Sumitomo Pharma Co., Ltd., priority 2022, dated 2025)

Legend:
Assay type in all cases: cell-based
[1] = system: α-synuclein aggregate in neurospheroid prepared from human iPS cells with a mutation in PLA2G6 gene; experiment: Test 2: suppressing the accumulation of α-synuclein aggregate with neurospheroid; settings: 120 h, DMSO = 100%, compound added day 4, measured day 9 after induction of differentiation; for activity at 0.1 µM: 100 nM, read-out: Amount of aggregate (%) 100 nM; for activity at 1 µM: 1000 nM, read-out: Amount of aggregate (%) 1000 nM
Protocol: Test 2: Evaluation of Suppressing the Accumulation of α-Synuclein Aggregate with Neurospheroid Prepared from Human iPS Cells with a Mutation in PLA2G6 Gene
(§1) (1) Induction of Differentiation from Human iPS Cell to Neural Cell
Neural stem cells were induced from PLA2G6 gene mutant iPS cells with PSC Neuronal Induction Medium (Thermo Fisher Scientific Inc., cat #A1647801). Neurospheroid was prepared from the induced neural stem cells by three-dimensional culture system, and preserved with BrainPhys Neuronal Medium (STEMCELL Technologies, cat #ST-05793) comprising NeuroCult SM1 Neuronal Supplement, N2 Supplement-A, 20 ng/mL BDNF, 20 ng/mL GDNF, 1 mM dibutyryl cAMP, and 200 nM ascorbic acid. Half of the culture medium was replaced on day 2 and day 4 after the induction of differentiation.
The test compound was diluted with the culture medium so as to be twice the final concentration, and an equal volume of the twice-concentrated solution was added to each well when half of the culture medium was replaced on day 4 after induction of differentiation.
(§2) (2) Evaluation of the Amount of α-Synuclein Aggregate
(§3) From the neurospheroid 9 days after the induction of differentiation, proteins were extracted with a TBS solution containing 1% TritionX-100, and the extracted proteins were subjected to a protein analysis with Simple Western system (Protein Simple, Inc., cat #SM-W008) using an α-synuclein antibody (Thermo Fisher Scientific Inc., cat #AHB0261) to measure the amount of the α-synuclein aggregate.
Assuming that the amount of the aggregate in the neurospheroid added with a DMSO solution is 100%, the amount of the aggregate in the neurospheroid added with each test compound was evaluated.

[2] = system: α-synuclein aggregate in dopamine neurospheroid prepared from human iPS cells with a mutation in GBA1 gene; experiment: Test 11: reducing the accumulation of α-synuclein aggregate with dopamine neurospheroid; settings: DMSO = 100%, compound added day 40, measured day 44, GBA1 mutant
Protocol: Test 11: Evaluation of Reducing the Accumulation of α-Synuclein Aggregate with Dopamine Neurospheroid Prepared from Human iPS Cells with a Mutation in GBA1 Gene
as §1
(§4) Dopaminergic progenitor cells were induced from GBA1 gene mutant iPS cells with dopaminergic neuron differentiation kit (Thermo Fisher Scientific Inc., cat #A3147701). Dopamine neurospheroid was prepared from the induced dopaminergic progenitor cells by three-dimensional culture system, and preserved with BrainPhys Neuronal Medium (STEMCELL Technologies, cat #ST-05793) comprising NeuroCult SM1 Neuronal Supplement, N2 Supplement-A, 20 ng/mL BDNF, 20 ng/mL GDNF, 1 mM dibutyryl cAMP, and 200 nM ascorbic acid. Half of the culture medium was replaced every 3 or 4 days.
The test compound was diluted with the culture medium so as to be twice the final concentration, and an equal volume of the twice-concentrated solution was added to each well when half of the culture medium was replaced on day 40 after induction of differentiation.
as §2
as §3, with “From the dopamine neurospheroid 44” for “From the neurospheroid 9”, “dopamine neurospheroid 44 days after” for “the neurospheroid 9 days after”
(§5) The amount of the aggregate in the neurospheroid added with each test compound was measured. Assuming that the amount of the aggregate in the neurospheroid added with a DMSO solution is 100%, the amount of the aggregate in the test samples was evaluated.

[3] = system: α-synuclein aggregate in dopamine neurospheroid prepared from human iPS cells with a mutation in PLA2G6 gene; experiment: Test 5: suppressing the accumulation of α-synuclein aggregate with dopamine neurospheroid; settings: 120 h, DMSO = 100%, compound added day 21, measured day 26, PLA2G6 mutant; for activity at 0.1 µM: 100 nM, read-out: Amount of aggregate (%) 100 nM; for activity at 1 µM: 1000 nM, read-out: Amount of aggregate (%) 1000 nM
Protocol: Test 5: Evaluation of Suppressing the Accumulation of α-Synuclein Aggregate with Dopamine Neurospheroid Prepared from Human iPS Cells with a Mutation in PLA2G6 Gene
as §1
as §4, with “PLA2G6” for “GBA1”, “days after the induction of differentiation.” for “days.”
The test compound was diluted with the culture medium so as to be twice the final concentration, and an equal volume of the twice-concentrated solution was added to each well when half of the culture medium was replaced on day 21 after induction of differentiation.
as §2
as §3, with “From the dopamine neurospheroid 26” for “From the neurospheroid 9”, “dopamine neurospheroid 26 days after” for “the neurospheroid 9 days after”
as §5

[4] = system: α-synuclein aggregate in neurospheroid prepared from human iPS cells with a mutation in PLA2G6 gene; experiment: Test 3: reducing the accumulation of α-synuclein aggregate with neurospheroid; settings: 120 h, DMSO = 100%, compound added day 10, measured day 15 after induction of differentiation; for activity at 0.1 µM: 100 nM, read-out: Amount of aggregate (%) 100 nM; for activity at 1 µM: 1000 nM, read-out: Amount of aggregate (%) 1000 nM
Protocol: Test 3: Evaluation of Reducing the Accumulation of α-Synuclein Aggregate with Neurospheroid Prepared from Human iPS Cells with a Mutation in PLA2G6 Gene (1) Induction of Differentiation from Human iPS Cell to Neural Cell
Neural stem cells were induced from PLA2G6 gene mutant iPS cells with PSC Neuronal Induction Medium (Thermo Fisher Scientific Inc., cat #A1647801). Neurospheroid was prepared from the induced neural stem cells by three-dimensional culture system, and preserved with BrainPhys Neuronal Medium (STEMCELL Technologies, cat #ST-05793) comprising NeuroCult SM1 Neuronal Supplement, N2 Supplement-A, 20 ng/mL BDNF, 20 ng/mL GDNF, 1 mM dibutyryl cAMP, and 200 nM ascorbic acid. Half of the culture medium was replaced every 3 or 4 days after the induction of differentiation.
The test compound was diluted with the culture medium so as to be twice the final concentration, and an equal volume of the twice-concentrated solution was added to each well when half of the culture medium was replaced on day 10 after induction of differentiation.
as §2
as §3, with “15” for “9”
as §5

Structure (SMILES)	activity at 0.1 µM [1] [%]	activity at 1 µM [1] [%]	Amount of aggregate (%) 100 nM [2] [%]	Amount of aggregate (%) 1000 nM [2] [%]	activity at 0.1 µM [3] [%]	activity at 1 µM [3] [%]	activity at 0.1 µM [4] [%]	activity at 1 µM [4] [%]
CN1CC(C)(C(=O)N2CCC(c3cncc(C(F)(F)F)c3)CC2)C1 [Example 44, (1,3-dimethylazetidin-3-yl){4-[5-(trifluoromethyl)pyridin-3-yl]piperidin-1-yl}methanone]	20	0	20	24	18	26	15	16
CC1(C(=O)N2CCC(c3cnc(C(F)(F)F)c(F)c3)CC2)COC1 [Example 29, {4-[5-fluoro-6-(trifluoromethyl)pyridin-3-yl]piperidin-1-yl}(3-methyloxetan-3-yl)methanone]	24	14	–	–	9	8	42	60
CC1(C(=O)N2CCC(c3ccc(C(F)(F)F)cn3)CC2)COC1 [Example 9]	8	50	–	–	18	23	10	20
CCC1(C(=O)N2CCC(c3ccc(C(F)(F)F)nc3)CC2)COC1 [Example 5]	22	90	–	–	14	18	22	70
CC1(C(=O)N2CCC(c3cncc(C(F)(F)F)c3)CC2)COC1 [Example 2, (3-methyloxetan-3-yl){4-[5-(trifluoromethyl)pyridin-3-yl]piperidin-1-yl}methanone]	9	1	21	20	16	7	20	17
CC1(C(=O)N2CCC(c3ccc(C(F)(F)F)nc3)CC2)COC1 [Example 1, (3-Methyloxetan-3-yl){4-[6-(trifluoromethyl)pyridin-3-yl]piperidin-1-yl}methanone]	14	16	23	14	17	21	20	30
CCC1(C(=O)N2CCC(c3cnc(C(F)(F)F)cc3C)CC2)COC1 [Example 32]	18	5	–	–	3	0	29	96
CC1(C(=O)N2CCC(c3cnccc3C(F)(F)F)CC2)CNC1 [Example 35]	28	28	–	–	27	38	16	19
CN1CC(C)(C(=O)N2CCC(c3cccnc3C(F)(F)F)CC2)C1 [Example 42, (1,3-dimethylazetidin-3-yl){4-[2-(trifluoromethyl)pyridin-3-yl]piperidin-1-yl}methanone]	27	9	18	8	17	11	28	45
O=C(N1CCOCC1)N1CCC(c2ccc(C(F)(F)F)nc2)CC1 [Example 49, (Morpholin-4-yl){4-[6-(trifluoromethyl)pyridin-3-yl]piperidin-1-yl}methanone]	13	18	–	–	–	–	–	–
CC(C)c1ccc(C2CCN(C(=O)C3(C)COC3)CC2)cn1 [Example 56]	30	71	–	–	–	–	–	–
CN1CC(C)(C(=O)N2CCC(c3ccc(C(F)(F)F)cn3)CC2)C1 [Example 45]	9	4	–	–	17	8	46	76
CC1(C(=O)N2CCC(c3ccc(Cl)nc3)CC2)COC1 [Example 54]	63	35	–	–	–	–	–	–
CC1(C(=O)N2CCC(c3cccnc3C(F)(F)F)CC2)CN(C2CC2)C1 [Example 67, (1-Cyclopropyl-3-methylazetidin-3-yl){4-[2-(trifluoromethyl)pyridin-3-yl]piperidin-1-yl}methanone]	82	64	–	–	–	–	–	–
